Data as given in patent US12377175B2, “Trifunctional constructs with tunable pharmacokinetics useful in imaging and anti-tumor therapies” (Cornell University, priority 2016, dated 2025).
Several values for one entry are separate records, joined by “and”; a condition that tells them apart may be missing. Equal values may be shown once.

Tested on: LNCaP xenograft tumor-bearing mice
Experiment: Biodistribution of 225Ac-macropa-RPS-070 in LNCaP xenograft mice
Assay type: in vivo, mouse
Procedure: Cell Culture. […] Cell culture supplies were from Invitrogen unless otherwise noted.
Inoculation of Mice with Xenografts. All animal studies were approved by the Institutional Animal Care and Use Committee of Weill Cornell Medicine and were undertaken in accordance with the guidelines set forth by the USPHS Policy on Humane Care and Use of Laboratory Animals. Animals were housed under standard conditions in approved facilities with 12 h light/dark cycles. Food and water was provided ad libitum throughout the course of the studies. Hairless male nu/nu mice were purchased from the Jackson Laboratory. For inoculation in mice, LNCaP cells were suspended at 4×10^7 cells/mL in a 1:1 mixture of PBS:Matrigel (BD Biosciences). Each mouse was injected in the left flank with 0.25 mL of the cell suspension. Biodistributions were conducted when tumors were in the range 100-400 mm^3.
Biodistribution of […] in LNCaP xenograft mice. Fifteen LNCaP xenograft tumor-bearing mice (5 per time point) were injected intravenously with a bolus injection of 85-95 kBq and 100 ng ([…]) of each ligand. The mice were sacrificed by cervical dislocation at 4, 24 and 96 h post injection. A blood sample was removed, and a full biodistribution study was conducted on the following organs (with contents): heart, lungs, liver, small intestine, large intestine, stomach, spleen, pancreas, kidneys, muscle, bone, and tumor. Tissues were weighed and counted on a 2470 Wizard Automatic Gamma Counter (Perkin Elmer). 1% ID/mL samples were counted prior to and following each set of tissue samples to enable decay correction to be undertaken. Counts were corrected for decay and for activity injected, and tissue uptake was expressed as percent injected dose per gram (% ID/g). Standard error measurement was calculated for each data point.

[1] = 4 h after i.v. injection, n = 5

SMILES: O=C(O)CC[C@H](NC(=O)N[C@@H](CCCCNC(=O)Nc1cccc(-c2cn(CCOCCOCCOCCOCCOCCOCCC(=O)N[C@@H](CCCCNC(=S)Nc3cc(CN4CCOCCOCCN(Cc5cccc(C(=O)[O-])n5)CCOCCOCC4)nc(C(=O)[O-])c3)C(=O)N[C@@H](CCCCNC(=O)Cc3ccc(I)cc3)C(=O)O)nn2)c1)C(=O)O)C(=O)O.[225Ac+3] [225Ac-macropa-RPS-070]
- Organ distribution, Blood, individual mice 1-5 (4 h after i.v. injection): 0.9065 % ID/g and 0.5525 % ID/g and 1.118 % ID/g and 0.8276 % ID/g and 0.6564 % ID/g
- Organ distribution, Bone, individual mice 1-5 (4 h after i.v. injection): 1.149 % ID/g and 1.123 % ID/g and 1.487 % ID/g and 0.9204 % ID/g and 1.155 % ID/g
- Organ distribution, Heart, individual mice 1-5 (4 h after i.v. injection): 0.7576 % ID/g and 0.6532 % ID/g and 0.774 % ID/g and 0.7515 % ID/g and 0.6565 % ID/g
- Organ distribution, Kidneys, individual mice 1-5 (4 h after i.v. injection): 65.5884 % ID/g and 20.5274 % ID/g and 108.233 % ID/g and 33.654 % ID/g and 33.0707 % ID/g
- Organ distribution, Large Intestine, individual mice 1-5 (4 h after i.v. injection): 1.363 % ID/g and 0.6516 % ID/g and 1.274 % ID/g and 0.9166 % ID/g and 0.819 % ID/g
- Organ distribution, Liver, individual mice 1-5 (4 h after i.v. injection): 1.622 % ID/g and 1.346 % ID/g and 1.742 % ID/g and 1.681 % ID/g and 1.3957 % ID/g
- Organ distribution, Lungs, individual mice 1-5 (4 h after i.v. injection): 0.9956 % ID/g and 0.6067 % ID/g and 1.2979 % ID/g and 0.9859 % ID/g and 0.8866 % ID/g
- Organ distribution, Muscle, individual mice 1-5 (4 h after i.v. injection): 0.6801 % ID/g and 0.8058 % ID/g and 0.7282 % ID/g and 0.6767 % ID/g and 0.6562 % ID/g
- Organ distribution, Pancreas, individual mice 1-5 (4 h after i.v. injection): 0.5549 % ID/g and 0.4164 % ID/g and 0.5532 % ID/g and 0.4675 % ID/g and 0.6604 % ID/g
- Organ distribution, Small Intestine, individual mice 1-5 (4 h after i.v. injection): 0.1998 % ID/g and 0.1628 % ID/g and 0.3104 % ID/g and 0.2441 % ID/g and 0.1709 % ID/g
- Organ distribution, Spleen, individual mice 1-5 (4 h after i.v. injection): 1.409 % ID/g and 0.708 % ID/g and 1.613 % ID/g and 1.108 % ID/g and 0.8756 % ID/g
- Organ distribution, Stomach, individual mice 1-5 (4 h after i.v. injection): 0.3396 % ID/g and 0.2471 % ID/g and 0.3042 % ID/g and 0.4109 % ID/g and 0.2122 % ID/g
- Organ distribution, Tumor, individual mice 1-5 (4 h after i.v. injection): 6.732 % ID/g and 10.7309 % ID/g and 23.8367 % ID/g and 15.3682 % ID/g and 7.504 % ID/g
- Organ distribution, Blood, Mean [1]: 0.8122 % ID/g
- Organ distribution, Bone, Mean [1]: 1.167 % ID/g
- Organ distribution, Heart, Mean [1]: 0.7189 % ID/g
- Organ distribution, Kidneys, Mean [1]: 52±16 % ID/g and 52.2146 % ID/g
- Organ distribution, Large Intestine, Mean [1]: 1.005 % ID/g
- Organ distribution, Liver, Mean [1]: 1.557 % ID/g
- Organ distribution, Lungs, Mean [1]: 0.9469 % ID/g
- Organ distribution, Muscle, Mean [1]: 0.7094 % ID/g
- Organ distribution, Pancreas, Mean [1]: 0.5305 % ID/g
- Organ distribution, Small Intestine, Mean [1]: 0.2176 % ID/g
- Organ distribution, Spleen, Mean [1]: 1.143 % ID/g
- Organ distribution, Stomach, Mean [1]: 0.3028 % ID/g
- Organ distribution, Tumor, Mean [1]: 13±3 % ID/g and 12.8342 % ID/g
- Organ distribution, Blood, individual mice 1-5 (24 h after i.v. injection): 0.3483 % ID/g and 0.3132 % ID/g and 0.2208 % ID/g and 0.2945 % ID/g and 0.277 % ID/g
- Organ distribution, Bone, individual mice 1-5 (24 h after i.v. injection): 1.273 % ID/g and 1.066 % ID/g and 0.8394 % ID/g and 1.006 % ID/g and 0.6976 % ID/g
- Organ distribution, Heart, individual mice 1-5 (24 h after i.v. injection): 0.5226 % ID/g and 0.5633 % ID/g and 0.4521 % ID/g and 0.4791 % ID/g and 0.4648 % ID/g
- Organ distribution, Kidneys, individual mice 1-5 (24 h after i.v. injection): 4.988 % ID/g and 4.257 % ID/g and 3.946 % ID/g and 3.665 % ID/g and 4.103 % ID/g
- Organ distribution, Large Intestine, individual mice 1-5 (24 h after i.v. injection): 0.133 % ID/g and 0.1259 % ID/g and 0.1325 % ID/g and 0.1343 % ID/g and 0.1318 % ID/g
- Organ distribution, Liver, individual mice 1-5 (24 h after i.v. injection): 1.578 % ID/g and 1.476 % ID/g and 1.138 % ID/g and 1.143 % ID/g and 1.485 % ID/g
- Organ distribution, Lungs, individual mice 1-5 (24 h after i.v. injection): 0.5378 % ID/g and 0.4508 % ID/g and 0.4608 % ID/g and 0.4286 % ID/g and 0.4483 % ID/g
- Organ distribution, Muscle, individual mice 1-5 (24 h after i.v. injection): 0.6119 % ID/g and 0.5149 % ID/g and 0.4483 % ID/g and 0.7803 % ID/g and 0.4458 % ID/g
- Organ distribution, Pancreas, individual mice 1-5 (24 h after i.v. injection): 0.3985 % ID/g and 0.3912 % ID/g and 0.5035 % ID/g and 0.3332 % ID/g and 0.3194 % ID/g
- Organ distribution, Small Intestine, individual mice 1-5 (24 h after i.v. injection): 0.08784 % ID/g and 0.09914 % ID/g and 0.08822 % ID/g and 0.09466 % ID/g and 0.1037 % ID/g
- Organ distribution, Spleen, individual mice 1-5 (24 h after i.v. injection): 0.6208 % ID/g and 0.6576 % ID/g and 0.6201 % ID/g and 0.5768 % ID/g and 0.5855 % ID/g
- Organ distribution, Stomach, individual mice 1-5 (24 h after i.v. injection): 0.1296 % ID/g and 0.1212 % ID/g and 0.1119 % ID/g and 0.1467 % ID/g and 0.1533 % ID/g
- Organ distribution, Tumor, individual mice 1-5 (24 h after i.v. injection): 11.6163 % ID/g and 9.269 % ID/g and 7.502 % ID/g and 4.414 % ID/g and 8.047 % ID/g
